Laboratory results: ChEMBL document CHEMBL1201862, “PubChem BioAssay data set” (2004)
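Exposure lasted 48 hours, with cells grown in 96-well plates and compounds tested at five concentrations. The concentration for 50% growth inhibition is given as GI50.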 The source made the active and inactive calls. No stated cut-off is given here; in the data, active = GI50 up to about 1.1 µM and inactive = higher.

Key:
Assay in all cases: inhibition of tumour cell growth, NCI panel, 48 h
[1] = system: CCRF-CEM
[2] = system: U-251
[3] = system: MOLT-4
[4] = system: IGROV-1
[5] = system: Malme-3M
[6] = system: HCC 2998
[7] = system: HCT-116
[8] = system: NCI-H522
[9] = system: SK-MEL-28
[10] = system: M14
[11] = system: A498
[12] = system: 786-0
[13] = system: SK-MEL-2
[14] = system: A549
[15] = system: K562
[16] = system: HCT-15
[17] = system: SK-OV-3
[18] = system: RPMI-8226

SMILES | GI50 [1] | GI50 [2] | GI50 [3] | GI50 [4] | GI50 [5] | GI50 [6] | GI50 [7] | GI50 [8] | GI50 [9] | GI50 [10] | GI50 [11] | GI50 [12] | GI50 [13] | GI50 [14] | GI50 [15] | GI50 [16] | GI50 [17] | GI50 [18]
Cc1cc(OCC(O)CO)ccc1-c1ccccc1 (centres undefined) | 35 µM (inactive) | 54.3 µM (inactive) | > 100 µM (inactive) | > 100 µM (inactive) | > 100 µM (inactive) | > 100 µM (inactive) | 77.3 µM (inactive) | > 100 µM (inactive) | > 100 µM (inactive) | > 100 µM (inactive) | 11.4 µM (inactive) | > 100 µM (inactive) | > 100 µM (inactive) | > 100 µM (inactive) | > 100 µM (inactive) | 37.2 µM |  | 
CC1(C)C(=O)C(C)(C)C1=NNC(N)=S |  | > 100 µM (inactive) | > 100 µM (inactive) | > 100 µM (inactive) | > 100 µM (inactive) | > 100 µM (inactive) | > 100 µM (inactive) | > 100 µM (inactive) | > 100 µM (inactive) | > 100 µM (inactive) |  | > 100 µM (inactive) |  | > 100 µM (inactive) | > 100 µM (inactive) | > 100 µM | > 100 µM (inactive) | > 100 µM (inactive)
C=CC1(C)/C(=N\O)C(C)(CC)C(=O)N1O (centres undefined) | > 100 µM (inactive) | > 100 µM (inactive) | > 100 µM (inactive) | > 100 µM (inactive) | > 100 µM (inactive) |  | > 100 µM (inactive) | > 100 µM (inactive) | > 100 µM (inactive) | > 100 µM (inactive) | > 100 µM (inactive) | > 100 µM (inactive) | > 100 µM (inactive) | > 100 µM (inactive) | > 100 µM (inactive) | > 100 µM | > 100 µM (inactive) | 
Cc1cccc(C)c1NC(=O)CCCC(=O)CC(=O)/C=C/c1ccccc1 | > 100 µM (inactive) | > 100 µM (inactive) | > 100 µM (inactive) | > 100 µM (inactive) | > 100 µM (inactive) |  | > 100 µM (inactive) | > 100 µM (inactive) | > 100 µM (inactive) | > 100 µM (inactive) | > 100 µM (inactive) | > 100 µM (inactive) | > 100 µM (inactive) | > 100 µM (inactive) | > 100 µM (inactive) | > 100 µM | > 100 µM (inactive) | > 100 µM (inactive)
CNS(=O)(=O)NNS(=O)(=O)c1ccc(C)cc1 | > 100 µM (inactive) |  | > 100 µM (inactive) | > 100 µM (inactive) | > 100 µM (inactive) | > 100 µM (inactive) | > 100 µM (inactive) | > 100 µM (inactive) | > 100 µM (inactive) | > 100 µM (inactive) | > 100 µM (inactive) | > 100 µM (inactive) | > 100 µM (inactive) | > 100 µM (inactive) | > 100 µM (inactive) |  | > 100 µM (inactive) | > 100 µM (inactive)
NC(CCc1nc(-c2ccc(Cl)cc2)cs1)C(=O)O (centres undefined) | > 100 µM (inactive) | > 100 µM (inactive) | > 100 µM (inactive) | > 100 µM (inactive) | > 100 µM (inactive) | > 100 µM (inactive) | > 100 µM (inactive) | > 100 µM (inactive) | > 100 µM (inactive) | > 100 µM (inactive) | > 100 µM (inactive) | > 100 µM (inactive) | > 100 µM (inactive) | > 100 µM (inactive) |  | 74 µM | > 100 µM (inactive) | > 100 µM (inactive)
CC(=O)CCn1[nH]c(=O)c(Cl)c(Cl)c1=O | > 100 µM (inactive) |  | > 100 µM (inactive) | > 100 µM (inactive) | > 100 µM (inactive) | > 100 µM (inactive) | > 100 µM (inactive) |  | > 100 µM (inactive) | > 100 µM (inactive) | > 100 µM (inactive) | > 100 µM (inactive) | > 100 µM (inactive) | > 100 µM (inactive) | > 100 µM (inactive) | > 100 µM |  | > 100 µM (inactive)
Cc1cc(N(CCC#N)CCC#N)ccc1/N=N/c1ccc([N+](=O)[O-])cc1 | > 100 µM (inactive) | 18.6 µM (inactive) | > 100 µM (inactive) |  | > 100 µM (inactive) | > 100 µM (inactive) | 17.7 µM (inactive) | > 100 µM (inactive) | > 100 µM (inactive) | > 100 µM (inactive) | > 100 µM (inactive) | 43 µM (inactive) | > 100 µM (inactive) | > 100 µM (inactive) | > 100 µM (inactive) | 39.4 µM | > 10 µM (inactive) | 44.9 µM (inactive)
Nc1nc(N)c2ncn(CCOC(c3ccccc3)P(=O)(O)O)c2n1 (centres undefined) | > 100 µM (inactive) | > 100 µM (inactive) | > 100 µM (inactive) | > 100 µM (inactive) | > 100 µM (inactive) | > 100 µM (inactive) | > 100 µM (inactive) | > 100 µM (inactive) | > 100 µM (inactive) |  | > 100 µM (inactive) | > 100 µM (inactive) | > 100 µM (inactive) | > 100 µM (inactive) |  | > 100 µM | > 100 µM (inactive) | 
